Results from ChEMBL document CHEMBL1147807, “Identification of 2-acylaminothiophene-3-carboxamides as potent inhibitors of FLT3” (Bioorg Med Chem Lett, 2006).

target: T1, Receptor-type tyrosine-protein kinase FLT3 (Homo sapiens, UniProt P36888); assay: Inhibition of FLT3
T1 sequence (P36888 whole entry): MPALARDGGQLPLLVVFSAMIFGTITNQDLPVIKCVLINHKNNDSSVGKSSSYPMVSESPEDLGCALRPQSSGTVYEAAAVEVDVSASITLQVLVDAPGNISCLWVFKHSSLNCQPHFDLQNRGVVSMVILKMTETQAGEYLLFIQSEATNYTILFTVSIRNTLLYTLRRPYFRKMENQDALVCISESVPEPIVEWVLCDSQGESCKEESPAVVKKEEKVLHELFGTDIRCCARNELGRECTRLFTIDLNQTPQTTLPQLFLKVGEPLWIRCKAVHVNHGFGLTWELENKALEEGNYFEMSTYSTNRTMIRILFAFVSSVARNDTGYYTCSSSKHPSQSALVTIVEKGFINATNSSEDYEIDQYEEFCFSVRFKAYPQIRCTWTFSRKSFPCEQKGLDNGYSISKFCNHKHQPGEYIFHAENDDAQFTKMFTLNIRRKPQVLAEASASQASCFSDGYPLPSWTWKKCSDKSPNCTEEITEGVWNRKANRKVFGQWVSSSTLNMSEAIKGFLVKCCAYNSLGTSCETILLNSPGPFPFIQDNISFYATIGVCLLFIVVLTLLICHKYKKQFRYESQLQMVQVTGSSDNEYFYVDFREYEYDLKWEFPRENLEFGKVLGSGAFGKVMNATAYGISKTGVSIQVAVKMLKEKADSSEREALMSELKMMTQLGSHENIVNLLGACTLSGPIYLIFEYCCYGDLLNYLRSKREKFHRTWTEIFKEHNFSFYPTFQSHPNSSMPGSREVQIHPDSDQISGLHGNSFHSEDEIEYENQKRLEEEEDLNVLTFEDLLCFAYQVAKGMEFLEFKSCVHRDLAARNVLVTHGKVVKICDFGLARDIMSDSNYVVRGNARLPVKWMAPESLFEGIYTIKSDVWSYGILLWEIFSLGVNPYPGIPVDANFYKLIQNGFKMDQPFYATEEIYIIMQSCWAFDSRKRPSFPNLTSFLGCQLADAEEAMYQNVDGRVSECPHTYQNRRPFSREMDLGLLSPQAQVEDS

`COc1cc(C(=O)Nc2sc3c(c2C(N)=O)CCCC3)cc(OC)c1OC` and `COc1ccc(C(=O)Nc2sc3c(c2C(N)=O)CCCCCC3)cc1OC` cannot be ordered by IC50: > 10000 nM for the first, > 100000 nM for the second.

`NC(=O)c1c(NC(=O)c2ccccc2Cl)sc2c1CCCC2` and `COc1ccccc1C(=O)Nc1sc2c(c1C(N)=O)CCCC2` cannot be ordered by IC50: > 10000 nM for the first, > 10000 nM for the second.

`NC(=O)c1c(NC(=O)c2ccc(Oc3ccccc3)cc2)sc2c1CCCC2` and `NC(=O)c1c(NC(=O)c2ccc(-c3ccccc3)cc2)sc2c1CCCC2` cannot be ordered by IC50: > 10000 nM for the first, > 10000 nM for the second.

First: CC(C)C(=O)Nc1sc2c(c1C(N)=O)CCCC2
Second: CC(=O)Nc1sc2c(c1C(N)=O)CCCC2
The IC50 of the first is higher: > 10000 nM for the first, 2000 nM for the second.

Going from `NC(=O)c1c(NC(=O)c2ccccc2)sc2c1CCCC2` to `NC(=O)c1c(NC(=O)c2ccncc2)sc2c1CCCC2`, the IC50 falls from 360 nM to 110 nM (3.3-fold). The second is the more potent here.

`NC(=O)c1c(NC(=O)CSc2ccccc2)sc2c1CCCC2` and `NC(=O)c1c(NC(=O)COc2ccccc2)sc2c1CCCC2` cannot be ordered by IC50: > 10000 nM for the first, > 10000 nM for the second.

First: NC(=O)c1c(NC(=O)C2CC2)sc2c1CCCC2
Second: NC(=O)c1c(NC(=O)C2CCCCC2)sc2c1CCCC2
The IC50 of the first is lower: 1300 nM for the first, > 10000 nM for the second.

First: COc1ccc(/C=C/C(=O)Nc2sc3c(c2C(N)=O)CCCC3)cc1
Second: NC(=O)c1c(NC(=O)c2cccnc2)sc2c1CCCC2
The IC50 of the first is 4.4-fold lower: 250 nM for the first, 1100 nM for the second.

test system: MV4-11; assay: Antiproliferative activity against human MV4-11 cells

`COc1ccc(/C=C/C(=O)Nc2sc3c(c2C(N)=O)CCCC3)cc1OC` and `COc1ccc(/C=C/C(=O)Nc2sc3c(c2C(N)=O)CCCC3)cc1` are within 1.5-fold of each other in IC50: 2000 nM for the first, 1800 nM for the second.

First: COc1ccc(CCC(=O)Nc2sc3c(c2C(N)=O)CCCC3)cc1
Second: COc1ccc(C(=O)Nc2sc3c(c2C(N)=O)CCCC3)cc1
The IC50 of the first is higher: > 10000 nM for the first, 1300 nM for the second. The second is the more potent here.

Going from `NC(=O)c1c(NC(=O)Cc2ccccc2)sc2c1CCCC2` to `NC(=O)c1c(NC(=O)CSc2ccccc2)sc2c1CCCC2`, the IC50 falls from > 10000 nM to 3800 nM. The second is the more potent here.

`Cc1cccc(C(=O)Nc2sc3c(c2C(N)=O)CCCC3)c1` and `NC(=O)c1c(NC(=O)c2cccc(Cl)c2)sc2c1CCCC2` are within 1.5-fold of each other in IC50: 3200 nM for the first, 2200 nM for the second.

`NC(=O)c1c(NC(=O)c2ccc3c(c2)OCO3)sc2c1CCCC2` and `Cc1ccc(C(=O)Nc2sc3c(c2C(N)=O)CCCC3)cc1C` are within 1.5-fold of each other in IC50: 890 nM for the first, 710 nM for the second.

`NC(=O)c1c(NC(=O)c2ccc(Br)cc2)sc2c1CCCC2` and `NC(=O)c1c(NC(=O)c2ccc(Cl)cc2)sc2c1CCCC2` are within 1.5-fold of each other in IC50: 1500 nM for the first, 1400 nM for the second.

Compared with `COc1ccc(C(=O)Nc2sccc2C(N)=O)cc1OC`, `COc1ccc(C(=O)Nc2sc(C)c(C)c2C(N)=O)cc1OC` is 7.3-fold lower in IC50: 2400 nM for the first, 330 nM for the second. The second is the more potent here.

Compared with `COc1cc(OC)cc(C(=O)Nc2sc3c(c2C(N)=O)CCCC3)c1`, `COc1cccc(C(=O)Nc2sc3c(c2C(N)=O)CCCC3)c1` is lower in IC50: > 10000 nM for the first, 1500 nM for the second.

Going from `CC(C)(C)c1ccc(C(=O)Nc2sc3c(c2C(N)=O)CCCC3)cc1` to `Cc1ccc(C(=O)Nc2sc3c(c2C(N)=O)CCCC3)cc1`, the IC50 falls from 1600 nM to 450 nM (3.6-fold).

Going from `NC(=O)c1c(NC(=O)c2ccccc2)sc2c1CCCC2` to `NC(=O)c1c(NC(=O)c2ccncc2)sc2c1CCCC2`, the IC50 falls from > 10000 nM to 2100 nM. The second is the more potent here.

`CC(=O)c1ccc(C(=O)Nc2sc3c(c2C(N)=O)CCCC3)cc1` and `NC(=O)c1c(NC(=O)c2cccnc2)sc2c1CCCC2` are within 1.5-fold of each other in IC50: 1800 nM for the first, 2000 nM for the second.

Compared with `NC(=O)c1c(NC(=O)c2ccco2)sc2c1CCCC2`, `NC(=O)c1c(NC(=O)/C=C/c2ccco2)sc2c1CCCC2` is 3.1-fold lower in IC50: 1500 nM for the first, 480 nM for the second. The second is the more potent here.

Compared with `NC(=O)c1c(NC(=O)C2CC2)sc2c1CCCC2`, `NC(=O)c1c(NC(=O)c2ccccn2)sc2c1CCCC2` is 3.4-fold lower in IC50: 1200 nM for the first, 350 nM for the second.

Going from `NC(=O)c1c(NC(=O)/C=C/c2ccccc2)sc2c1CCCC2` to `CC(C)c1ccc(/C=C/C(=O)Nc2sc3c(c2C(N)=O)CCCC3)cc1`, the IC50 rises from 530 nM to 2700 nM (5.1-fold).

Going from `Cc1ccc(/C=C/C(=O)Nc2sc3c(c2C(N)=O)CCCC3)o1` to `COc1ccc(C(=O)Nc2sc3c(c2C(N)=O)CCC3)cc1OC`, the IC50 falls from 10000 nM to 410 nM (24-fold). The second is the more potent here.
